The text below walks through data of patent US20230365589A1, “NOVEL AMINE DERIVATIVES” (Sumitomo Pharma Co., Ltd., priority 2020, published 2023).

Common to all, as to assay type: biochemical
The target in one experiment is T1, DYRK2 (Homo sapiens, UniProt Q92630).
T1 construct: purchased Carna Biosciences, Inc. 04-132
T1 sequence (Q92630 74-601 limits assumed): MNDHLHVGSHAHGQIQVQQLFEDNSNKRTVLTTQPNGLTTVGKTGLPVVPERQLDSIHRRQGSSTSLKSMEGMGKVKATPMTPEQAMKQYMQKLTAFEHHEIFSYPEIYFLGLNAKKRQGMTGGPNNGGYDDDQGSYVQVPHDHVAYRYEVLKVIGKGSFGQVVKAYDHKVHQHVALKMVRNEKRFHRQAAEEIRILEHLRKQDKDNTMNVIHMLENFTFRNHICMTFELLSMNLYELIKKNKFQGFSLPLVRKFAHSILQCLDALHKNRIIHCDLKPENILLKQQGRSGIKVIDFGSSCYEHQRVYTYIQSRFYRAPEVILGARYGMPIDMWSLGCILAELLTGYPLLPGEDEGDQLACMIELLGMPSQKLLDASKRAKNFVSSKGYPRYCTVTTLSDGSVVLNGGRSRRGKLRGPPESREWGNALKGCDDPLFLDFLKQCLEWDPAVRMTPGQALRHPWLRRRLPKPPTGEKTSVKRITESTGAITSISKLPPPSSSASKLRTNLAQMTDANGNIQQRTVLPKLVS
Nature of the experiment: Inhibition test on activity of DYRK family, mobility shift assay (MSA): DYRK2. On the procedure: (§1) [Inhibition Test on Activity of DYRK Family (DYRK1A, DYRK1B, DYRK2, and DYRK3)]
(§2) The kinase activity was measured by mobility shift assay (MSA) method using QuickScout Screening Assist™ MSA (commercially available kit manufactured by Carna Biosciences, Inc.). The substrate of the kinase reaction used was an FITC-labeled DYRKtide peptide included in the kit. An assay buffer [20 mM HEPES, 0.01% Triton X-100™, 2 mM dithiothreitol, pH 7.5]was used to create a substrate mixture solution with a substrate (4 μM), MgCl2(20 mM), and ATP (DYRK1A: 100 μM; DYRK1B: 200 μM; DYRK2: 40 μM; and DYRK3: 20 μM). In addition, kinases (DYRK1A: manufactured by Carna Biosciences, Inc., Cat. No. 04-130; DYRK1B: manufactured by Carna Biosciences, Inc., Cat. No. 04-131; DYRK2; manufactured by Carna Biosciences, Inc., Cat. No. 04-132; and DYRK3; manufactured by Carna Biosciences, Inc., Cat. No. 04-133) were diluted with the assay buffer to prepare enzyme solutions (DYRK1A: 0.2 ng/μL; DYRK1B: 0.08 ng/μL; DYRK2: 0.04 ng/μL; and DYRK3: 0.25 ng/μL). The 10 mM solution of the test compound in DMSO was further diluted with DMSO to 10 levels of the concentration (0.00003 mM, 0.0001 mM, 0.0003 mM, 0.001 mM, 0.003 mM, 0.01 mM, 0.03 mM, 0.1 mM, 0.3 mM, and 1 mM), each of which was subjected to 25-fold dilution with the assay buffer to obtain a drug solution (4% DMSO solution). 5 μL of the drug solution or a control solution (4% DMSO-assay buffer), 5 μL of the substrate mixture solution, and 10 μL of the enzyme solution were mixed in the wells of a polypropylene 384-well plate and allowed to react at room temperature for 1 hour, and then the reaction was quenched by adding 60 μL of the termination buffer included in the kit. Subsequently, the quantities of the substrates (S) and the phosphorylated substrate (P) in the reaction solution were measured using LabChip EZ Reader II system (manufactured by Caliper Life Sciences) according to the protocol of the assay kit.
(§3) The heights of the peaks of the “substrate” and the “phosphorylated substrate” were expressed as S and P, respectively, and a blank containing the assay buffer instead of the enzyme solution was also measured.
(§4) The inhibition rate (%) of the test compound was calculated according to the following equation:
(§5) Inhibition rate (%)=(1−(C−A)/(B−A))×100 • wherein, A, B, and C represent P/(P+S) of the blank well, P/(P+S) of the control solution well, and P/(P+S) of the compound-containing well, respectively.
(§6) The IC50 value was calculated via a regression analysis of the inhibition rate and the test compound concentration (logarithmic value).
(§7) The inhibiting activities of representative compounds of the present invention are shown against DYRK1A, DYRK1B, DYRK2, and DYRK3 in Tables.

A further experiment deals with T2, DYRK1A (Homo sapiens, UniProt Q13627).
T2 construct: purchased Carna Biosciences, Inc. 04-130
Nature of the experiment: Inhibition test on activity of DYRK family, mobility shift assay (MSA): DYRK1A. On the procedure:
as §1, §2, §3, §4, §5, §6

In another experiment the target is T3, DYRK3 (Homo sapiens, UniProt O43781).
T3 construct: purchased Carna Biosciences, Inc. 04-133
T3 sequence (O43781 1-568 isoform O43781-2): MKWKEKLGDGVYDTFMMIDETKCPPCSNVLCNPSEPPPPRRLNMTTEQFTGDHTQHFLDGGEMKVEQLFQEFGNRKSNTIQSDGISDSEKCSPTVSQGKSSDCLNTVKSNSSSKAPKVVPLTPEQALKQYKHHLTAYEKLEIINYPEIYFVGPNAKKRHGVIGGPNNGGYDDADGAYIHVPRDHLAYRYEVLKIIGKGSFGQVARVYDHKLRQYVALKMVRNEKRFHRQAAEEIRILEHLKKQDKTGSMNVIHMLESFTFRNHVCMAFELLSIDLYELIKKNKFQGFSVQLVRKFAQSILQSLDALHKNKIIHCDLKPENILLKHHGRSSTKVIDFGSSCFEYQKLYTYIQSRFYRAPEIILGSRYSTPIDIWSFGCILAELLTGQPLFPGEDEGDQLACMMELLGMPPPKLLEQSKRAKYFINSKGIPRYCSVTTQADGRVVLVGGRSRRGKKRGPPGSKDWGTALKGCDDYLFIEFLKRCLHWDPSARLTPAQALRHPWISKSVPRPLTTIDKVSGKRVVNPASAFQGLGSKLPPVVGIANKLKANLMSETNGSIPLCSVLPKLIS
The experiment in a line: Inhibition test on activity of DYRK family, mobility shift assay (MSA): DYRK3. On the procedure: as §1, §2, §3, §4, §5, §6, §7

Setting [1] is: MSA, FITC-labeled DYRKtide peptide, ATP 40 μM, read-out: Inhibitory activity DYRK 2 (IC50 class).
Where [2] appears, read: MSA, FITC-labeled DYRKtide peptide, ATP 100 μM, read-out: Inhibitory activity DYRK 1A (IC50 class).
[3] abbreviates: MSA, FITC-labeled DYRKtide peptide, ATP 20 μM, read-out: Inhibitory activity DYRK 3 (IC50 class).
Where [4] appears, read: read-out: Inhibitory activity DYRK 2.
[5] abbreviates: read-out: Inhibitory activity DYRK 1A.
The mark [6] stands for this setting: read-out: Inhibitory activity DYRK 3.

Where two headings read alike, the source gives them in different places.

For `CN1CCC[C@@H]2[C@H](C1)NC(=O)N2c1nc2c3c(ccc2s1)OCC3` [Example 18], the results for the IC50 at DYRK2 (setting [1]), on DYRK1A (setting [2]) and on DYRK3 (setting [3]) were 100 to 1000 nM, 10 to 100 nM and 100 to 1000 nM, respectively.

Regarding `CC(C)N1CC2NC(=O)N(c3nc4c5c(ccc4s3)OCC5)C2C1` (stereo not drawn) [Example 16], the IC50 is ≥ 1000 nM on DYRK2 (setting [1]), 100 to 1000 nM at DYRK1A (setting [2]) and ≥ 1000 nM on DYRK3 (setting [3]).

Regarding `O=C1N[C@H]2CCN(CC(F)(F)F)C[C@H]2N1c1nc2c3c(ccc2s1)OCC3` (racemic) [Example 107, rac-(3aR,7aS)-3-(7,8-dihydrofuro[3,2-e][1,3]benzothiazol-2-yl)-5-(2,2,2-trifluoroethyl)octahydro-2H-imidazo[4,5-c]pyridin-2-one], the IC50 on DYRK2 (setting [4]) was ≥ 1000 nM; on DYRK1A (setting [5]), 10 to 100 nM; on DYRK3 (setting [6]), ≥ 1000 nM.

In the case of `CN1CC[C@@H]2[C@H](C1)NC(=O)N2c1nc2c3c(ccc2s1)OCO3` (racemic) [Example 78, rac-(3aR,7aS)-1-(2H-[1,3]dioxolo[4,5-e][1,3]benzothiazol-7-yl)-5-methyloctahydro-2H-imidazo[4,5-c]pyridin-2-one], the IC50 on DYRK2 (setting [1]) was ≥ 1000 nM; on DYRK1A (setting [2]), 10 to 100 nM; at DYRK3 (setting [3]) it was 100 to 1000 nM.

For `O=C1N[C@H]2CCN(C3COC3)C[C@H]2N1c1nc2c3c(ccc2s1)OCCO3` (racemic) [Example 80, rac-(3aR,7aS)-3-(7,8-dihydro[1,4]dioxino[2,3-e][1,3]benzothiazol-2-yl)-5-(oxetan-3-yl)octahydro-2H-imidazo[4,5-c]pyridin-2-one], the IC50 at DYRK2 (setting [1]) was ≥ 1000 nM; on DYRK1A (setting [2]), 10 to 100 nM; on DYRK3 (setting [3]), ≥ 1000 nM.

As for `C#CCN1C[C@@H]2NC(=O)N(c3nc4c5c(ccc4s3)OCC5)[C@@H]2C1` (racemic) [Example 102, rac-(3aR,6aS)-1-(7,8-dihydrofuro[3,2-e][1,3]benzothiazol-2-yl)-5-(2-propyn-1-yl)hexahydropyrrolo[3,4-d]imidazol-2(1H)-one], the IC50 was ≥ 1000 nM on DYRK2 (setting [4]), 10 to 100 nM on DYRK1A (setting [5]) and 100 to 1000 nM on DYRK3 (setting [6]).

`O=C1N[C@H]2CCNCC[C@H]2N1c1nc2c3c(ccc2s1)OCC3` [Example 45]: the IC50 at DYRK2 (setting [1]) is 100 to 1000 nM; at DYRK1A (setting [2]), 10 to 100 nM; on DYRK3 (setting [3]), 10 to 100 nM.

Take `N#CCN1C[C@@H]2NC(=O)N(c3nc4c5c(ccc4s3)OCC5)[C@@H]2C1` (racemic) [Example 103, rac-[(3aR,6aS)-1-(7,8-dihydrofuro[3,2-e][1,3]benzothiazol-2-yl)-2-oxohexahydropyrrolo[3,4-d]imidazol-5(1H)-yl]acetonitrile]: the IC50 at DYRK2 (setting [4]) was ≥ 1000 nM; on DYRK1A (setting [5]), 10 to 100 nM; on DYRK3 (setting [6]), 100 to 1000 nM.

As to `O=C1NC2CCNCC2N1c1nc2c3c(ccc2s1)OCO3` (stereo not drawn) [Example 30], the figures for the IC50 at DYRK2 (setting [1]), at DYRK1A (setting [2]) and at DYRK3 (setting [3]) were ≥ 1000 nM, 10 to 100 nM and ≥ 1000 nM, respectively.

`CN1CC[C@@H]2NC(=O)N(c3nc4c5c(ccc4s3)OCCO5)[C@@H]2C1` (racemic) [Example 76, rac-(3aR,7aS)-3-(7,8-dihydro[1,4]dioxino[2,3-e][1,3]benzothiazol-2-yl)-5-methyloctahydro-2H-imidazo[4,5-c]pyridin-2-one]: the IC50 at DYRK2 (setting [1]) was ≥ 1000 nM; at DYRK1A (setting [2]), 10 to 100 nM; at DYRK3 (setting [3]) it was ≥ 1000 nM.

As for `CN1CC(N2CC[C@@H]3NC(=O)N(c4nc5c6c(ccc5s4)OCC6)[C@@H]3C2)C1` [Example 83], the IC50 at DYRK2 (setting [1]) is ≥ 1000 nM; at DYRK1A (setting [2]), 100 to 1000 nM; on DYRK3 (setting [3]), 100 to 1000 nM.

As for `COC(=O)[C@H]1C[C@@H]2[C@H](CO1)NC(=O)N2c1nc2c3c(ccc2s1)OCC3` [Example 141], the IC50 at DYRK2 (setting [1]) is ≥ 1000 nM; at DYRK1A (setting [2]), 10 to 100 nM; at DYRK3 (setting [3]), ≥ 1000 nM.

In the case of `O=C1N[C@@H]2CCN(C3CC3)C[C@@H]2N1c1nc2c3c(ccc2s1)OCO3` (single isomer, unassigned) [Example 35], the IC50 on DYRK2 (setting [1]), on DYRK1A (setting [2]) and at DYRK3 (setting [3]) was ≥ 1000 nM throughout.

For the compound `O=C1N[C@H]2CN(C3CC3)CC[C@H]2N1c1nc2c3c(ccc2s1)OCO3` [Example 87], the values for the IC50 at DYRK2 (setting [1]), on DYRK1A (setting [2]) and at DYRK3 (setting [3]) were 100 to 1000 nM, 100 to 1000 nM and ≥ 1000 nM, respectively.

With `O=C1N[C@@H]2CCN(C3CC3)C[C@@H]2N1c1nc2c3c(ccc2s1)OCCO3` (single isomer, unassigned) [Example 33], the IC50 was ≥ 1000 nM at DYRK2 (setting [1]), 100 to 1000 nM on DYRK1A (setting [2]) and ≥ 1000 nM at DYRK3 (setting [3]).

For the compound `O=C1NC2CCNCC2N1c1nc2c3c(ccc2s1)OCCO3` (stereo not drawn) [Example 29], the IC50 was ≥ 1000 nM on DYRK2 (setting [1]), 10 to 100 nM on DYRK1A (setting [2]) and ≥ 1000 nM on DYRK3 (setting [3]).

Consider `O=C1N[C@@H]2CCNC3(CC3)[C@H]2N1c1nc2c3c(ccc2s1)OCC3` [Example 48], for which the IC50 at DYRK2 (setting [1]) fell in the range of 100 to 1000 nM; on DYRK1A (setting [2]), 10 to 100 nM; on DYRK3 (setting [3]) it was 10 to 100 nM.

For the compound `O=C1N[C@@H]2C[C@H](CO)OC[C@@H]2N1c1nc2c3c(ccc2s1)OCC3` [Example 145], the IC50 was ≥ 1000 nM at DYRK2 (setting [1]), 100 to 1000 nM at DYRK1A (setting [2]) and ≥ 1000 nM on DYRK3 (setting [3]).

Take `CC(C)(C)OC(=O)N1CC(N2CC[C@@H]3NC(=O)N(c4nc5c6c(ccc5s4)OCC6)[C@@H]3C2)C1` [Example 82]: the IC50 was ≥ 1000 nM on DYRK2 (setting [1]), 10 to 100 nM at DYRK1A (setting [2]) and ≥ 1000 nM at DYRK3 (setting [3]).

Regarding `COC[C@@H]1[C@H](C)NC(=O)N1c1nc2c3c(ccc2s1)OCC3` [Example 44, (4S,5S)-1-(7,8-dihydrofuro[3,2-e][1,3]benzothiazol-2-yl)-5-(methoxymethyl)-4-methylimidazolidin-2-one], the results for the IC50 at DYRK2 (setting [1]), on DYRK1A (setting [2]) and at DYRK3 (setting [3]) were 100 to 1000 nM, < 10 nM and 100 to 1000 nM, respectively.
